In patent publication US20200352918A1, “COMPOUNDS AND METHODS FOR TREATING OR PREVENTING FIBROSIS” (priority 2019, published 2020):

Experiments:
[1] = system: iFA phenotype of mesenchymal-like cells on 13 kPa hydrogels; test: iFA-prevention phenotypic high-content drug screen (iFA model); assay type: cell-based, human
Description: Mesenchymal-like cells were cultured on 13 kPa functionalized polyacrylamide gels that were prepared as follows. 187.5 μl of 40% acrylamide, 60 μl of 2% bis-acrylamide and 8.55 μl of sodium bisulfate in a final volume of 990 μl of water was incubated for 20 min at room temperature to degas the mixture. To this mixture, 0.10% ammonium persulfate and 0.15% TEMED were added, mixed and 100 μl of the solution was added onto a 0.4% 3-(Trimethoxysily) propyl methacrylate pH 3.5 treated coverslip. A 2% dimethyl dichlorosilane in chloroform treated round glass coverslip was then inverted on the acrylamide solution and allowed to polymerize for 15 min between the two surfaces. The top coverslip was gently removed, and the bottom coverslips with the hydrogel were transferred to appropriate multi-well low adherent tissue culture plate containing coupling buffer (0.1 M sodium phosphate dibasic, 0.1 M sodium phosphate monobasic) pH 8. To functionalize the hydrogel, 1 part of 0.1 M p-benzoquinone in dioxane was added to the hydrogels containing 4 parts of coupling buffer and incubated at 37° C. for 30 min. The gel was then successively washed with 20% dioxane in water, water, 0.1 M sodium acetate buffer at pH 4.0 containing 1.0 M sodium chloride, 0.1 M sodium bicarbonate solution at pH 8.5 containing 1.0 M sodium chloride, and finally with coupling buffer at pH 7.5. The hydrogels were then coated with 0.1% gelatin for 2 hrs prior to seeding the cells. Cells were seeded at a density of 3000 cells/cm^2.
A phenotypic high-content drug screen was prepared to identify compounds capable of preventing the iFA phenotype in a 96-well format. An ImageXpress XL high-throughput imager with a 4× Plan objective (N/A 0.20) was used with image based focusing. Briefly, 100 μL media were plated in each well of 96 well plate using a Thermo Multidrop non-contact dispenser. Using a custom V&P pin tool mounted to a Beckman FX liquid handler, 1.5 μL compounds or DMSO were added. Mesenchymal-like cells were added as a suspension using the Multidrop at a density of 3.5×10^3 cells/well. The resulting compound concentration was 10 μM. Cells were imaged after 7 days of incubation at 37° C. and 5% CO2: A final of 0.5 μg/ml of Calcein AM and/or 10 μg/ml propidium iodide (viability dye) with 1 μg/ml Hoechst 33342 were added and imaged using the ImageXpress XL system. Data mining was performed using a custom module consisting of the following steps: The image background was removed using a top-hat filter with 25 μm round shape polisher. Next, cellular aggregates and individual spindle-shaped cells were identified. Aggregates of cells were defined by size with a cut-off of 60 to 200 micron and an intensity of at least 200 gray scales over background. Individual spindle-shaped cells were identified as smaller objects with cut-offs from 15 to 100 micron and a lower intensity of at least 70 gray scales over background.
Additional morphometric measurements were made by counting labeled cell nuclei and measuring total area covered with cells per well. The data resulting from the screen were batch exported through MetaXpress and uploaded into a Collaborative Drug Discovery (CDD) cloud based database (Ekins and Bunin, 2013, Methods in molecular biology 993, 139-154.). Hits were selected on a cut-off of more than 3 standard deviations from mean using data normalized to reference wells in each plate. IC50 values (the half maximal inhibitory concentration) from confirmation experiments were calculated from dose-response signal curves using the Prism software (GraphPad Software).
Signal-to-background (S/B) ratio, standard variation and variation coefficients were calculated as the signal of DMSO treated wells divided by the signal of the hit compound (AA5) treated wells. […]

[2] = system: iFA model; test: In situ cell elasticity by atomic force microscopy in the iFA model; assay type: cell-based, human; details: AA5 vs DMSO-treated iFA model
Description: Tapping mode AFM using the Bruker BioScope Catalyst Atomic Force coupled with Zeiss LSMS Confocal Fluorescence Microscope was used on the cells at 37° C. in cell culture media. AFM deflection images of cells were used in the imaging experiment. In the force measurement, sharp silicon nitride AFM probes (tip radius, 20 nm) were employed (Bruker Corp., USA). The spring constants of AFM tips were calibrated to be 0.10-0.11 N m^−1 and deflection sensitivities were 45-50 nm V^−1, using Thermo K Calibration (Agilent Technologies, USA). The approaching/retracting speed of the AFM tip during the force curve measurement was 6 μm s^−1. Force-distance curves were recorded to obtain cell elasticity (Young's modulus, E) of individual cells. For each time point, at least 20 single cells, 20 cells at the base of the iFA and 20 cells at the tip of the scar were measured with over 15 force-distance curves per cell to obtain significant results. The Young's modulus was calculated via the Scanning Probe Image Processor (SPIP) software (Image Metrology, Denmark) by converting the force-distance curves to force-separation curves and fitting the Sneddon variation of the Hertz model, which describes conical tips indenting elastic samples.

[3] = system: bleomycin model of lung injury; test: Bleomycin-induced pulmonary fibrosis in aged mice; assay type: in vivo
Description: To define the anti-fibrotic effect of AA5, a bleomycin model of lung injury in aged mice was used as a model of lung fibrosis (FIG. 30A). 52-week-old mice were challenged with bleomycin (3 U/kg) by the oropharyngeal route to induce lung injury, followed by systemic administration of AA5 (20 mg/kg) or DMSO, from days 7-21 post bleomycin injury. Naïve mice were maintained as controls. The mice were sacrificed on day 21 and the total collagen content of the lungs was quantified using the hydroxyproline assay. […] The percentage of fibrotic areas from each section was quantified using hematoxylin and eosin staining, tiled and imaged on a Zeiss Axioscope microscope at 2.5× and quantified using the spline contour tool using the ZEN 2011 software.
Naive mice (n=4) without bleomycin were also monitored in the same manner throughout treatment period. […] Data represent min-max and median of collagen content relative to total protein content. ***P<0.001 **P<0.01 using one-way ANOVA and Sidak's multiple comparison test. FIGS. 30C and 30D show a representative H&E section of bleomycin treated lungs with the borders of the lung and fibrotic areas marked using the spline contour tool (FIG. 30C). […] Scale bar, 200 μm. […] Scale bars, 100 μm.

SMILES: Cc1c(C(=O)Nc2nc3ccccc3s2)sc2nc3cc4c(cc3cc12)OCO4 [AA5]
- Prevention of the iFA phenotype ([1]; 0.6 μM-10 μM AA5, Calcein AM / Hoechst 33342 (FIG. 17A)): Full prevention of phenotype was seen at low micromolar concentrations
- Dose response ([1]; 20 point dose course, picomolar to millimolar): +++ (+++ = strong effect)
- IC50 ([1]; Homo sapiens, FIG. 16B, read-out: IC50 (dose response, iFA phenotype)): 900 nM
- Efficacy in secondary screen ([1]; assay repeated with compound sourced commercially or from additional library materials): +++ (+++ = strong effect)
- Efficacy in primary screen ([1]; library compound plated with cells on day 1 on hydrogel, phenotype on day 7, 10 μM): +++ (+++ = strong effect)
- Cell stiffness [2]: significantly decreased
- Total collagen of the lungs (hydroxyproline assay) ([3]; AA5 20 mg/kg systemic, days 7-21 post bleomycin, day 21, vs vehicle): significantly reduced total collagen
- Type II marker pro-Surfactant Protein C (proSPC) ([3]; AA5 20 mg/kg vs vehicle, IF): qualitatively larger number
- Percentage of fibrotic areas (H&E) ([3]; AA5 20 mg/kg, day 21): vehicle treated mice displayed significantly more fibrotic areas compared to the AA5 treated animals
